Here are results for one compound from patent US9089640B2, “Apparatus and kit for encapsulating at least one compound for therapeutic and/or diagnostic use in erythrocytes” (ERYDEL S.p.A., priority 2010, dated 2015).

Each structure is given as a SMILES string.

For the assay, the system named is autologous IgGs. The experiment in a line: Recognition of treated erythrocytes by autologous IgGs (targeting to macrophages). The class given is cell-based. As for the experimental part: The targeting to macrophages of erythrocytes containing drugs and/or contrast means can be achieved by the apparatus shown in the figure following a procedure similar to that used in example 1. When fludarabine was used as an encapsulating agent, a final concentration of 0.8 mM was obtained. The erythrocytes treated in this way were recognised by autologous IgGs in percentages over 80% the total number of processed cells.

As for `Nc1nc(F)nc2c1ncn2[C@@H]1O[C@H](CO)[C@@H](O)[C@@H]1O` [fludarabine], the “Treated erythrocytes recognised by autologous IgGs, percentage of total number of processed cells” value is recorded as “over 80%”.
